Source: paper PMC8408276, “Distinct neuropeptide-receptor modules regulate a sex-specific behavioral response to a pheromone” (Communications Biology, 2021)
Entries after “also recorded” stand apart in the source; their conditions may differ. Where no end group is shown, it is not given here.

Assays:
[1] = tested on: C. elegans; assay: Single worm attraction assay (SWAA); assay type: in vivo
Method: We adapted the spot retention assay (Supplementary Fig. 1)[28],[38] to allow for better characterization of individual worm behavior and robust interrogation of attraction to small molecules. We first compared the attractiveness of 1 µM ascr#8 (Fig. 1a, inset) across multiple strains of C. elegans (the wild-type N2 strain, the high incidence of male him-5 and him-8 strains, and the chemosensory cilia defective osm-3), using our novel behavioral assay, the single worm attraction assay (SWAA) (Fig. 1a). In this assay, individual animals are placed directly into the spot of the ascaroside cue (A) while simultaneously removing any potential of male–male contact. A spatial control is included throughout the assay plate to allow us to investigate any innate differences in the number of visits to the well center, or the time spent therein, of which we have only found one strain to date with differences in male dwell time (Fig. 1a). Likewise, a vehicle control (V) is also included, to account of any changes in dwell time that are driven by the components of the vehicle. The outer forty wells of a 48-well suspension culture plate (Olympus Plastics, Cat #: 25-103) were seeded with 200 µL of standard NGM agar. To prepare the plates for the assay, they were acclimated to room temperature, at which point each well was seeded with 65 µL of OP50 E. coli. […] A single worm was placed in each of the 10 wells to be assayed, and the plate was transferred to a light source and camera and recorded for 15 m. […] Raw dwell time values were calculated by subtracting the time a worm exited the cue (center of the well in spatial controls), from the time it entered, as in the SRA[14]. This was determined per visit, and the average dwell time was calculated for each animal in the quadrant. Averages of the four-quadrant means were determined per plate, and a minimum of five plates were assayed per strain/condition. The mean raw dwell time across five plates was calculated and used for statistical analyses and graphical display. […] The number of visits per-worm was calculated, and the average visit count determined per quadrant, and per plate. The average visit count across five plates was calculated and used for statistical analyses and graphical display. An “attractive visit” was first determined for each plate as any visit greater than two standard deviations above the mean dwell time within the vehicle control for that plate. Any individual visit meeting this threshold was scored as a “1”, and any below was scored a “0”. The percent visits per-worm that were attractive was determined, and the average of each quadrant taken. […] The average percent of attractive visits across five plates was calculated and used for statistical analyses and graphical display. […]

[2] = tested on: C. elegans; conditions: males no longer attracted to higher concentrations; cited from earlier work
Source text: Here, we investigate the neuronal mechanisms governing the behavioral attractive response of male C. elegans to ascr#8[28].

[3] = tested on: C. elegans; assay: Drop avoidance assay; assay type: in vivo; conditions: Fig. 2c
Method: Because the defect in male response to ascr#8 was significant, and the SWAA was designed to detect attractive behaviors, we sought to determine if flp-3 loss-of-function (lof) animals were in fact avoiding ascr#8. Using a previously described drop avoidance assay[11],[41], we exposed forward moving animals to a drop of either vehicle control or ascr#8 and scored the avoidance index. […] The hermaphroditic behavior was unaffected by the loss of flp-3. (Fig. 2f). […] Assays were performed as described previously[4],[11],[41]. Fifty to sixty L4 worms were segregated by sex and stored at 20 °C for 5 h to overnight to be assayed as young adults. One to four hours prior to the assay, the lids of unseeded plates were tilted to allow any excess moisture to evaporate off the plates. At the time of the assay, 10 or more animals were transferred onto each of the dried, unseeded plates. A drop of either water or 1 µM ascr#8 was placed on the tail of forward moving animals, and their response was scored as either an avoidance response, or no response. The total number of avoidances was divided by the total number of drops to generate an avoidance index for that plate. This was repeated for at least 10 plates over at least three different days. Statistical comparisons within each strain were made by paired t-test against a significance level set at 0.05. […]

[4] = tested on: NPR-10A; assay: In vitro GPCR activation assay (CHO-K1, aequorin, Gα16), NPR-10A; assay type: cell-based, C. elegans; conditions: CHO-K1 aequorin/Gα16 calcium response; Supplementary Fig. 10a
Method: This peptide contains an R-to-K mutation within the C-terminal motif, which may explain the lack of receptor activation.
The GPCR activation assay was performed as previously described[66],[74]. Briefly, npr-10 and frpr-16 cDNAs were cloned into the pcDNA3.1 TOPO expression vector (Thermo Fisher Scientific). A CHO-K1 cell line (PerkinElmer, ES-000-A24) stably expressing apo-aequorin targeted to the mitochondria (mtAEQ) and human Gα16 was transiently transfected with the receptor cDNA construct or the empty pcDNA3.1 vector using Lipofectamine LTX and Plus reagent (Thermo Fisher Scientific). Cells were shifted to 28 °C one day later and allowed to incubate for 24 h. On the day of the assay, cells were collected in BSA medium (DMEM/Ham’s F12 with 15 mM HEPES, without phenol red, 0.1% BSA) and loaded with […] coelenterazine h (Thermo Fisher Scientific) for 4 h at room temperature. The incubated cells were then added to synthetic peptides dissolved in DMEM/BSA, and luminescence was measured for 30 s at 496 nm using a Mithras LB940 (Berthold Technologies) or MicroBeta LumiJet luminometer (PerkinElmer). After 30 s of readout, 0.1% triton X-100 was added to lyse the cells, resulting in a maximal calcium response that was measured for 10 s. […]

[5] = molecular target: T1, NPR-10B (Caenorhabditis elegans, UniProt Q6EUU1); assay: In vitro GPCR activation assay (CHO-K1, aequorin, Gα16), NPR-10B; assay type: cell-based, C. elegans; conditions: CHO-K1 aequorin/Gα16 calcium response
T1 sequence (Q6EUU1 1-362): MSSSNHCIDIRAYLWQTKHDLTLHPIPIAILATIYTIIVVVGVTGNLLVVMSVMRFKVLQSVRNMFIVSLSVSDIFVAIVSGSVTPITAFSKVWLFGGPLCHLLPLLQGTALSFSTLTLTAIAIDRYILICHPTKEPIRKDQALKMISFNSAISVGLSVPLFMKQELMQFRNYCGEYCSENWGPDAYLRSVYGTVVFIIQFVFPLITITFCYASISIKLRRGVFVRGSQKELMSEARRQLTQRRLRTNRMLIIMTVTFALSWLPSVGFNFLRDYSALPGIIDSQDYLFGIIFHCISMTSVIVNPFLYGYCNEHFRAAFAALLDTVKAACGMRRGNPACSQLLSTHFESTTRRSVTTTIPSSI
Method: (§1) The GPCR activation assay was performed as previously described[66],[74]. Briefly, npr-10 and frpr-16 cDNAs were cloned into the pcDNA3.1 TOPO expression vector (Thermo Fisher Scientific). A CHO-K1 cell line (PerkinElmer, ES-000-A24) stably expressing apo-aequorin targeted to the mitochondria (mtAEQ) and human Gα16 was transiently transfected with the receptor cDNA construct or the empty pcDNA3.1 vector using Lipofectamine LTX and Plus reagent (Thermo Fisher Scientific). Cells were shifted to 28 °C one day later and allowed to incubate for 24 h. On the day of the assay, cells were collected in BSA medium (DMEM/Ham’s F12 with 15 mM HEPES, without phenol red, 0.1% BSA) and loaded with […] coelenterazine h (Thermo Fisher Scientific) for 4 h at room temperature. The incubated cells were then added to synthetic peptides dissolved in DMEM/BSA, and luminescence was measured for 30 s at 496 nm using a Mithras LB940 (Berthold Technologies) or MicroBeta LumiJet luminometer (PerkinElmer). After 30 s of readout, 0.1% triton X-100 was added to lyse the cells, resulting in a maximal calcium response that was measured for 10 s. After initial screening, concentration-response curves were constructed for HPLC-purified FLP-3 peptides by subjecting the transfected cells to each peptide in a concentration range from 1 pM to 10 µM. Cells transfected with an empty vector were used as a negative control. Assays were performed in triplicate on at least two independent days. Concentration-response curves were fitted using Prism v. 7 (nonlinear regression analysis with a sigmoidal concentration-response equation).

[6] = molecular target: T2, FRPR-16 (Caenorhabditis elegans, UniProt Q21957); assay: In vitro GPCR activation assay (CHO-K1, aequorin, Gα16), FRPR-16; assay type: cell-based, C. elegans; conditions: CHO-K1 aequorin/Gα16 calcium response
T2 sequence (Q21957 1-340): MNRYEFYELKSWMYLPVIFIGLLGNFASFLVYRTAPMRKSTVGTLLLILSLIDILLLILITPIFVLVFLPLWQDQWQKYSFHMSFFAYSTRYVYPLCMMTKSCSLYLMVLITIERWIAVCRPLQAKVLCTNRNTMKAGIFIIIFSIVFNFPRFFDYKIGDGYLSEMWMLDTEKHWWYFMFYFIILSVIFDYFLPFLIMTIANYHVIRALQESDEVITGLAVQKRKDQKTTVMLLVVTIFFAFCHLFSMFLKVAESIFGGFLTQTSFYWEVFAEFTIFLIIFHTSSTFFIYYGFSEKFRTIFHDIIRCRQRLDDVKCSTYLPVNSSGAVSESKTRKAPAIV
Method: as §1

[7] = tested on: flp-3 lof C. elegans males; assay: Peptide rescue-by-feeding, avoidance assay; assay type: in vivo; conditions: flp-3 lof males reared on bacteria expressing the peptide; 1 µM ascr#8 drop
Source text: To identify which FLP-3 peptides are required for male avoidance of ascr#8, we adopted a peptide feeding approach, similar to RNAi feeding, as initially described previously[37],[59] (Fig. 6a). Using Gateway Cloning technology, we first inserted FLP-3 peptide coding sequences into a bacterial expression vector. As a control, we first tested the FLP-3 peptides that are still encoded in the ok3625 allele which are insufficient to drive the proper ascr#8 response in vivo: FLP-3-1 (SPLGTMRFamide) and FLP-3-4 (NPLGTMRFamide) (Supplementary Fig. 4). We then reared flp-3 lof animals on lawns of bacteria expressing the rescue constructs, and their progeny were assayed for avoidance (Fig. 6b–d, Supplementary Fig. 12).
DNA oligos containing the sequence for the peptides of interest were generated using Integrated DNA Technologies’ Ultramer synthesis service. The DNA sequence encoding the peptide sequence was flanked with sequences encoding EGL-3 cut sites (MRFGKR upstream, and KRK-STOP) downstream. These sites were then flanked with Gateway Cloning sites attB1 and attB2. Annealed oligos were then used to perform a BP reaction with pDONR p1-p2 to generate the pENTRY clones. […]
Assays were performed as described previously[4],[11],[41]. […] A drop of either water or 1 µM ascr#8 was placed on the tail of forward moving animals, and their response was scored as either an avoidance response, or no response. […]

C[C@H](CCCC/C=C/C(=O)O)O[C@@H]1O[C@@H](C)[C@H](O)C[C@H]1O [ascr#3]
Attractive response, in words ([1]; flp-3 lof males, Supplementary Fig. 5): no defect

C[C@H](CC/C=C/C(=O)Nc1ccc(C(=O)O)cc1)O[C@@H]1O[C@@H](C)[C@H](O)C[C@H]1O [ascr#8]
Concentration preferred by males (behavioral tuning curve) [2]: ~1 µM
Avoidance of the cue, in words ([3]; flp-3 lof males): strongly avoided
Avoidance of the cue, in words ([3]; wild-type males): did not avoid
Attractive visits to the cue ([1]; 1 µM ascr#8, males of wild-type strains, Supplementary Fig. 2b): 30–45%
Time spent in ascr#8 compared to the vehicle, in words ([1]; hermaphrodites from all strains): significantly less time
Time spent within ascr#8 spot compared to the vehicle control, in words ([1]; males, all wild-type and him strains, Fig. 1b, c): significant increase

EDGNAPFGTMKF-NH2 [FLP-3-6, flp-3 encoded peptide with R-to-K mutation within the C-terminal motif]
Activation of NPR-10A, in words [4]: activated no receptors
Activation of NPR-10 (NPR-10B), in words [5]: activated no receptors; also recorded: did not activate either receptor
Activation of FRPR-16, in words [6]: activated no receptors; also recorded: did not activate either receptor

STVDSSEPVIRDQ [FLP-3-10, non-RFamide peptide encoded by the flp-3 gene]
Activation of NPR-10A, in words [4]: activated no receptors
Rescue of the ascr#8 avoidance phenotype, in words [7]: unable to rescue the avoidance phenotype
Activation of NPR-10 (NPR-10B), in words [5]: activated no receptors; also recorded: failed to activate; also recorded: did not activate either receptor
Activation of FRPR-16, in words [6]: activated no receptors; also recorded: did not activate either receptor
